Test results from patent US20210188843A1, “QUINOLINE COMPOUNDS AND THEIR PREPARATION AND USE AS ANTIMALARIAL AGENTS” (The United States of America,as represented by the …, priority 2018, published 2021).
In brackets after ≈: the same amount, converted by molar mass.

Experiments:
[1] = Solubility pH 7.4; format: physicochemical; conditions: aqueous buffer, Table 1
[2] = Microsomal stability (rat); format: in vitro ADME; conditions: rat microsomes, Table 1, read-out: Microsomal Stability (rat) T1/2
[3] = test system: Asexual parasites of P. falciparum strain 3D7; assay: In vitro drug activity on asexual parasites (SYBR Green assay); format: cell-based; conditions: Plasmodium falciparum; Table 1; P. falciparum 3D7 asexual stage, 72 h; read-out: Asexual EC50
Procedure, shortened: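 Growth was measured by SYBR Green I fluorescence (excitation 490 nm, emission 520 nm) after freeze-thaw lysis and 30 min staining at room temperature. Parasites (0.5% parasitemia, 2% hematocrit) had been incubated 72 h with compound, DMSO below 0.5%. Conditions were run in duplicate with no-drug and RBC-alone controls.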

[4] = PAMPA permeability; format: in vitro ADME; conditions: Table 1

Row | SMILES | solubility [1] [µg/mL] | half-life [2] [min] | EC50 [3] [nM] | Papp [4] [×10⁻⁶ cm/s]
1 | Cc1ccc(C#N)cc1-n1c(=N)n(C)c2cnc3ccc(-c4ccc(Cl)cc4)cc3c21 [Compound 137, 3-(8-(4-chlorophenyl)-2-imino-3-methyl-2,3-dihydro-1H-imidazo[4,5-c]quinolin-1-yl)-4-methylbenzonitrile] | 3.6 (≈ 8.49 µM) | > 30 | 43.1 | 1260
2 | Cn1c(=N)n(-c2cccc(C(F)(F)F)c2)c2c3cc(-c4ccc(Cl)cc4)ccc3ncc21 [Compound 26, 8-(4-chlorophenyl)-3-methyl-1-(3-(trifluoromethyl)phenyl)-1,3-dihydro-2H-imidazo[4,5-c]quinolin-2-imine] | < 1 | > 30 | 529 | 1670
3 | Cc1cc(N2CCCCC2)c(C#N)cc1-n1c(=N)n(C)c2cnc3ccc(-c4ccc(Cl)cc4)cc3c21 [Compound 112, 5-(8-(4-chlorophenyl)-2-imino-3-methyl-2,3-dihydro-1H-imidazo[4,5-c]quinolin-1-yl)-4-methyl-2-(piperidin-1-yl)benzonitrile] | < 1 | > 30 | 1830 | 1280
